Reference: ChEMBL document CHEMBL1201862, “PubChem BioAssay data set” (2004)
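Protocol summary: plate cells (96-well), add compound at 5 concentrations, incubate 48 h, interpolate endpoints linearly. The concentration for 50% growth inhibition is given as GI50.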 Calls of active or inactive are those of the source. Cut-off read from the data, not from the text of the source: active = GI50 up to about 1.1 µM and inactive = higher.

Key:
Experiment in all cases: growth of human tumour cells (NCI), 48 h
[1] = test system: SK-MEL-2
[2] = test system: KM12
[3] = test system: NCI-H23
[4] = test system: COLO 205
[5] = test system: LOX IMVI
[6] = test system: IGROV-1
[7] = test system: SF-295
[8] = test system: BT-549
[9] = test system: PC-3
[10] = test system: MDA-MB-231
[11] = test system: UACC-257
[12] = test system: SK-OV-3
[13] = test system: SW-620
[14] = test system: SK-MEL-5
[15] = test system: SF-268
[16] = test system: HT-29
[17] = test system: SK-MEL-28
[18] = test system: ACHN
[19] = test system: A498

Measured: GI50

Cn1c2ccccc2c2c3c(c4c5ccccc5n(C)c4c21)C(=O)NC3=O
inactive: [1] > 26.5 µM | [2] 3.96 µM | [3] 15.1 µM | [4] > 72.6 µM | [5] > 34.8 µM | [6] 5.71 µM | [7] 20.4 µM | [8] > 42.4 µM | [9] > 31.4 µM | [10] 13.4 µM | [11] > 65.2 µM | [12] 5.35 µM | [13] > 74.6 µM | [14] 20.7 µM | [15] 97.5 µM | [16] > 32.5 µM | [17] > 65.2 µM

Cc1cc(C)nc(NS(=O)(=O)c2ccc(NC(=O)c3ccc4nc5ccccc5c(Nc5ccc(S(N)(=O)=O)cc5)c4c3)cc2)n1
inactive: [1] 42.9 µM | [2] 65.8 µM | [3] > 100 µM | [4] > 100 µM | [5] 45.6 µM | [6] > 100 µM | [7] > 100 µM | [8] 28.2 µM | [9] > 100 µM | [10] 94.2 µM | [11] > 100 µM | [12] > 100 µM | [13] > 100 µM | [14] > 100 µM | [15] > 100 µM | [18] > 100 µM | [16] 75.3 µM | [17] 86.7 µM

C[N+]1(c2ccccc2)C=C(c2ccccc2)SC1=S (centres undefined)
inactive: [1] 58.3 µM | [2] > 100 µM | [3] > 100 µM | [4] 23.1 µM | [5] > 100 µM | [6] > 100 µM | [7] > 100 µM | [8] > 100 µM | [9] > 100 µM | [19] 6.12 µM | [10] > 100 µM | [11] 48.9 µM | [13] > 100 µM | [14] 33.4 µM | [15] > 100 µM | [18] > 100 µM | [16] 7.43 µM | [17] 7.33 µM

CCOC(=O)c1c(NC(=O)c2ccccc2)sc2c1CCC2
inactive: [1] > 100 µM | [2] > 100 µM | [3] > 100 µM | [4] > 100 µM | [6] > 100 µM | [7] > 100 µM | [8] > 100 µM | [9] > 100 µM | [19] > 100 µM | [10] > 100 µM | [11] > 100 µM | [14] > 100 µM | [15] > 100 µM | [18] > 100 µM | [16] > 100 µM

NC(=O)c1ccc(C(=O)Nc2ccc([As](=O)(O)O)cc2)cc1
inactive: [1] > 100 µM | [2] > 100 µM | [3] > 100 µM | [4] > 100 µM | [5] > 100 µM | [6] > 100 µM | [7] > 100 µM | [8] > 100 µM | [9] > 100 µM | [19] > 100 µM | [10] > 100 µM | [12] > 100 µM | [13] > 100 µM | [14] > 100 µM | [15] > 100 µM | [18] > 100 µM | [16] > 100 µM | [17] > 100 µM

CN(C)Cc1cc(C(=O)/C=C/c2ccc([N+](=O)[O-])cc2)cc(CN(C)C)c1O
inactive: [1] 11.1 µM | [2] 11.9 µM | [3] 18.3 µM | [4] 1.99 µM | [5] 2.24 µM | [6] 12.2 µM | [7] 22.3 µM | [8] 13.6 µM | [9] 17 µM | [19] 11 µM | [10] 14.9 µM | [11] 14.1 µM | [13] 10.3 µM | [14] 11.3 µM | [15] 16 µM | [18] 3.33 µM | [16] 9.04 µM

Cc1cc(O)c(C(c2ccncc2)c2c(O)cc(C)[nH]c2=O)c(=O)[nH]1
inactive: [2] > 100 µM | [3] > 100 µM | [4] > 100 µM | [5] > 100 µM | [6] > 100 µM | [7] > 100 µM | [8] > 100 µM | [9] > 100 µM | [10] > 100 µM | [11] > 100 µM | [12] > 100 µM | [14] > 100 µM | [15] > 100 µM | [18] > 100 µM | [16] > 100 µM | [17] > 100 µM

Cc1ccc2c(c1)-c1nc(N)c(C#N)c(-c3ccc(Cl)cc3)c1CCS2(=O)=O
inactive: [1] 22.5 µM | [2] 33.3 µM | [3] 39.4 µM | [4] 24.7 µM | [5] 35.8 µM | [6] 43.1 µM | [8] 49 µM | [9] 26.8 µM | [19] 24.6 µM | [10] 27.1 µM | [11] 45.6 µM | [13] 46 µM | [14] 18.2 µM | [15] 67.6 µM | [18] 44.6 µM | [16] 21.4 µM | [17] 48.9 µM

CNC(=O)C1(N)c2ccccc2C=Cc2ccccc21
inactive: [1] > 100 µM | [2] > 100 µM | [3] > 100 µM | [4] > 100 µM | [5] > 100 µM | [6] > 100 µM | [7] > 100 µM | [8] > 100 µM | [9] > 100 µM | [19] > 100 µM | [10] > 100 µM | [12] > 100 µM | [13] > 100 µM | [14] > 100 µM | [15] > 100 µM | [18] > 100 µM | [16] > 100 µM | [17] > 100 µM

C=C(CN1CC2C[C@](C(=O)OC)(c3cc4ccccc4[nH]3)C1C(OC)C2OC)S(=O)(=O)c1ccccc1 (some centres undefined)
inactive: [1] 4.17 µM | [2] 2.88 µM | [3] 2.91 µM | [4] 2.54 µM | [5] 1.85 µM | [6] 2.6 µM | [7] 4.65 µM | [8] 3.85 µM | [9] 3.19 µM | [10] 3.35 µM | [11] 2.65 µM | [12] 3.49 µM | [13] 3.01 µM | [14] 4.44 µM | [15] 4.43 µM | [18] 3.01 µM | [16] 2.72 µM | [17] 7.53 µM

c1ccc(-c2cn3nc(N4CCOCC4)sc3n2)cc1
inactive: [1] > 100 µM | [2] > 100 µM | [3] > 100 µM | [4] > 100 µM | [6] 62.4 µM | [7] > 100 µM | [8] > 100 µM | [9] > 100 µM | [10] 85.9 µM | [11] > 100 µM | [12] > 100 µM | [13] > 100 µM | [14] > 100 µM | [15] > 100 µM | [18] > 100 µM | [16] > 100 µM | [17] > 100 µM
